Laboratory results: patent publication US20240122926A1, “APELIN RECEPTOR MODULATORS FOR TREATING MUSCLE CONDITIONS” (priority 2022, published 2024)

Experiments:
human APLNR = biological target: T1, human APLNR (Homo sapiens, UniProt P35414); assay: cell-based; conditions: CHO, read-out: maximum effect (Emax)
T1 sequence (P35414 1-380): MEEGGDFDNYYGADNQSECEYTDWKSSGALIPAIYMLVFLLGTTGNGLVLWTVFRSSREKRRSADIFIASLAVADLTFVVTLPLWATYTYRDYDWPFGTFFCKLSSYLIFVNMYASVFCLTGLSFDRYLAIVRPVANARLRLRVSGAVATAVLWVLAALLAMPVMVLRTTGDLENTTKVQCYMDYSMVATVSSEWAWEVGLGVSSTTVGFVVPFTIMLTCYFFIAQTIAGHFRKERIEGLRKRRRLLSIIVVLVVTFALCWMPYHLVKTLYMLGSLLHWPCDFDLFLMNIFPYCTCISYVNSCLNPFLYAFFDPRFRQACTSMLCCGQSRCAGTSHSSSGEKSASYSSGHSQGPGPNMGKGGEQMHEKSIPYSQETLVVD
Experimental: APLNR activation was determined by β-arrestin recruitment as measured by the ProLink […] complementation technology (93-0001, DiscoveRx). In brief, CHO cells stably expressing APLNR were seeded and incubated overnight at 37° C. The compounds were tested in duplicate and diluted to obtain a 10-point curve with 3-fold serial dilutions (<1% DMSO). The compounds and cells were incubated for 3 hours at 37° C. After the incubation period the detection reagents were added and the plate chemiluminescent signal was measured after 30 min at RT.

[1] = test system: Twenty-month-old male C57/Bl6 mice; assay: Hindlimb immobilization (casting, 21 days) disuse atrophy in aged mice, muscle wet weight; format: in vivo, mouse; conditions: 50 mg/kg BID P.O.; 21 days immobilization (placebo group 25%)
Text: Limb immobilization causes a loss of gross skeletal muscle mass accompanied by a significant decrease in apelin transcript levels.
One week into the treatment, mice underwent modified hindlimb casting on one limb. Mice were anesthetized with isoflurane inhalation and the hindlimb wiped with povidone-iodine, then ethanol, and loosely wrapped in surgical gauze. A custom-made plastic immobilization device was placed on the limb, with the foot in full extension, so as to result in the maximal in vivo unloading of the plantarflexor group. The device was fixed to the hindlimb using Vetbond and the animal returned to its cage. After 3 weeks of treatment following casting, mice were euthanized 1 hour after the final ZT1 dose, and tissues isolated, weighed, then flash frozen in liquid nitrogen for subsequent western blot analysis.

healthy adult subjects = assay: Phase 1 study Part A (SAD), safety and tolerability; format: in vivo, human; conditions: SAD cohorts
Experimental: Safety data is summarized using descriptive statistics (number of subjects, mean, median, standard deviation, minimum, and maximum) for continuous variables and using frequency and percentages for discrete variables.
Adverse events are coded using the Medical Dictionary for Regulatory Activities. The number of events, incidence, and percentage of TEAEs are calculated overall by system organ class, preferred term, and treatment group for each cohort and treatment group. The number and percentage of subjects with TEAEs are further summarized by severity and relationship to study drug. AEs related to study drug, AEs leading to withdrawal, SAEs, and deaths are also similarly summarized and/or listed in a similar manner.

[2] = test system: healthy volunteers aged ≥65 years; assay: Phase 1b bed rest study Part B (MD), limb circumference and ultrasound muscle dimensions; format: in vivo, human
Experimental: In each of the 3 cohorts in Part B, 30 total subjects are enrolled to receive treatment in either Cohort 1A, Cohort 1B, or Cohort 1C. Cohort 1A includes 10 subjects who all receive placebo NS over a 1 hour infusion for 10 days on Days 1 through Day 10. […] Patients are at bed rest for the entire 10-day duration of treatment.
Ultrasound images were collected during the following study visits: Day −1 (baseline), Day 6 (pre-dose), and day 11 (end of treatment). Ultrasounds were performed of both the vastus lateralis and gastroenemius to measure cross-sectional area, color flow doppler, antero-posterior (AP) diameter, and echo density. Muscle circumference was also measured. Ultrasound imaging was conducted by the same operator throughout the study for all subjects. Ultrasound readings were done by the same reader throughout the study for all subjects. […] The leg measured (right vs. left) and leg location (medial vs. lateral) remained consistent for all ultrasounds.
Muscle circumference was measured in centimeters (cm) using a measuring tape and recorded on the ultrasound worksheet at the time of imaging.
The ultrasound images were collected before conducting the skeletal muscle micro-biopsy. Prior to testing, subjects were instructed to wear shorts on testing day to avoid compression of the upper leg musculature and to expose the upper portion of the thigh. Subjects were required to lay supine on an examination table with both legs fully extended for a minimum of 5 minutes to allow for fluid shifts to occur. Each subject was instructed to lay on their non-dominant side to obtain skeletal muscle ultrasound images of the vastus lateralis and gastrocnemius in the dominant leg. Subjects were positioned with their legs on top of one another and slightly bent at the knee. Ultrasound images of the vastus lateralis will be captured at 50% of the straight-line distance from the greater trochanter and the lateral epicondyle of the femur.
To ensure proper probe placement and consistent image capture location, a dotted line was drawn transversely and longitudinally along the surface of the skin from the aforementioned location. All measures of muscle morphology were obtained using a B-mode, 12-MHz linear probe US (General Electric vivid E9) to provide acoustic contact without depressing the dermal layer of the skin. Longitudinal B-mode and transverse field of view (FOV) images were acquired during each exam and analyzed. Ultrasound settings remained fixed for examination of each subject: image gain was set at 50 decibels (dB), dynamic range was set at 72, and image depth was set at 5 cm. Three panoramic transverse images (PTI) were captured in the transverse plane, perpendicular to the long axis of the muscle. These images utilized the extended-field-of-view ultrasonography in order to include entire area of the vastus lateralis in a single panoramic image.
Additionally, three single longitudinal images (SLI) were captured in the longitudinal plane, parallel to the long axis of the muscle. […] This same technique was applied to ultrasound of the gastrocnemius. Either the medial head or lateral head of the gastrocnemius was used for ultrasound evaluation, but not both. The same head was used for all gastrocnemius ultrasounds throughout the study.
One day before (baseline, D-1) and 5 (D5) and 10 (D10) days after initiation of bed rest, key muscle atrophy endpoints were measured: thigh circumference; cross-sectional area (CSA) and A-P diameter of vastus lateralis (ultrasound); ultrasound muscle quality grade, an index that quantifies fatty degeneration in muscle (ultrasound echo density); and muscle protein synthesis rate (biopsy). Parameters measured during the 10-day bed rest period include thigh circumference, muscle size, muscle quality (e.g., fatty degeneration), and muscle protein synthetic rate.

[3] = 240 mg IV once daily, 10 days bed rest

COc1cccc(OC)c1-n1c(NS(=O)(=O)[C@@H](C)[C@H](C)c2ncc(C)cn2)nnc1-c1cncc(C)c1 [BGE-105, (2S,3R)—N-(4-(2,6-dimethoxyphenyl)-5-(5-methyl-3-pyridinyl)-4H-1,2,4-triazol-3-yl)-3-(5-methyl-2-pyrimidinyl)-2-butanesulfonamide]
Emax (human APLNR): 114%
decrease of wet weight of tibialis anterior (TA) muscle in casted limb [1]: 3%
serious adverse events (healthy adult subjects): no serious adverse events
tolerability (healthy adult subjects; all doses including 240 mg/1440 mg): well tolerated
reduction in loss of vastus lateralis cross-sectional area vs placebo [2, 3]: > 50%
reduction in loss of vastus lateralis muscle thickness vs placebo [2, 3]: 75%
decrease in gastrocnemius diameter, mean percent change from baseline ([2]; 10 days of bed rest (placebo 10.982%)): 2.942
decrease in gastrocnemius cross-sectional area, mean percent change from baseline ([2]; 10 days of bed rest (placebo 15.72%)): 7.758%
improvement in muscle dimension vs placebo ([2]; Cohort 1B vs Cohort 1A): ~75%
decrease in calf circumference ([2]; female subjects (placebo 5.486%)): 1.166%
decrease in thigh circumference ([2]; female subjects (placebo 6.06%)): 1.674%
decrease in gastrocnemius cross sectional area ([2]; female subjects (placebo 15.32%)): 5.558%
decrease in vastus lateralis cross sectional area ([2]; female subjects (placebo 23.67%)): 9.676%
reduction in muscle loss from disuse atrophy ([2]; healthy volunteer bed rest study): up to 75%
increase in thigh circumference after 10-day bed rest ([2]; older patients, BGE-105 treated group (placebo 6.438% reduction)): 0.8%
number of subjects (out of 11) with fully preserved or increased thigh circumference ([2]; over 10 days of bed rest): 7
percent of subjects with fully preserved or increased thigh circumference ([2]; over 10 days of bed rest): 64%
decrease in muscle size measured by ultrasound ([2]; treatment group (Cohort 1B) (placebo 21%)): 5.664%
